Active and inactive are the calls of the source. The calls are words filed in the database; no cut-off is given here.
Tests used:
[1] = Binding affinity to monoclonal antibody E06 by solid phase chemiluminescent immunoassay
J774 [2] = test: Cytotoxicity against mouse J774 macrophages assessed as effect on protein content up to 72 hrs; type: cell-based; conditions: j774, 72 h
J774 [3] = test: Cytotoxicity against mouse J774 macrophages assessed as effect on cell number up to 72 hrs; type: cell-based; conditions: j774, 72 h
[4] = molecular target: Platelet glycoprotein 4 (Mus musculus) (UniProt Q08857); test: Displacement of Bt-CuOxLDL from CD36 receptor in mouse J774 cells after 2 hrs by chemiluminescent assay; type: cell-based
[5] = molecular target: Platelet glycoprotein 4 (Homo sapiens) (UniProt P16671); test: Displacement of CuOxLDL from CD36 receptor expressed in CHO cells; type: cell-based
Platelet glycoprotein 4 (Homo sapiens), sequence (P16671 whole entry): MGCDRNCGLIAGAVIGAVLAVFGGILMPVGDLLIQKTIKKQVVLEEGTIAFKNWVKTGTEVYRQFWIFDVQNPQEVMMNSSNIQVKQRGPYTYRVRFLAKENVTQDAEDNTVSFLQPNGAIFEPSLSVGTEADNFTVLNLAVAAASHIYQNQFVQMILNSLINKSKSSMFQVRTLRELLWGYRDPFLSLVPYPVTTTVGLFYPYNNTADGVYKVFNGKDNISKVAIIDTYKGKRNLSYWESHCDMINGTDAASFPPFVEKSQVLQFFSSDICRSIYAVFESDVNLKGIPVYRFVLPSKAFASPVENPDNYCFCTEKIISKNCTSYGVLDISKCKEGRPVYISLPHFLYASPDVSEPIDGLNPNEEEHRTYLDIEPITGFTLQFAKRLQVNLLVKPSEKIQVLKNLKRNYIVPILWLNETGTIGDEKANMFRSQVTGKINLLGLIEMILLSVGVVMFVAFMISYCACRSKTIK

Platelet glycoprotein 4 (Mus musculus), sequence (Q08857 whole entry): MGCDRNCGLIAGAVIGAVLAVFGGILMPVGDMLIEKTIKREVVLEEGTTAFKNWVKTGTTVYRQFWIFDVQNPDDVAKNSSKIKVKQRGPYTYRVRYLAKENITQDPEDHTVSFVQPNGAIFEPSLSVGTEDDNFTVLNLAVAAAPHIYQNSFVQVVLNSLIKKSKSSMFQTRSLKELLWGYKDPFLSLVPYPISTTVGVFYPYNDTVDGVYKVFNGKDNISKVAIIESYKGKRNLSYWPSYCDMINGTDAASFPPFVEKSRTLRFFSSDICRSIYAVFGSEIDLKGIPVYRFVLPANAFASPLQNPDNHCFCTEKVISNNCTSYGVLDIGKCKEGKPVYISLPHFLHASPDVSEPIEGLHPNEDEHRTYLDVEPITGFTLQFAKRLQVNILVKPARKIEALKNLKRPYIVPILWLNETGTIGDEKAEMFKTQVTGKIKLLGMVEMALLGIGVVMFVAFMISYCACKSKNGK

Activity [1] | Activity [4] [%] | Activity [5] | inhibition [4] | Compound | Activity (J774 [2]) | Activity (J774 [3])
Active | > 99 | Active |  | CCCCCCCCCCCCCCCC(=O)OC[C@H](COP(=O)([O-])OCC[N+](C)(C)C)OC(=O)CCCCN(C)CCCC[C@H](NC(=O)[C@@H](NC(=O)CNC(=O)[C@@H](NC(C)=O)[C@@H](C)O)[C@@H](C)O)C(=O)NCC(=O)NCC(=O)O | Non-toxic | Non-toxic
 |  |  | inactive | H-TGTKGG-OH |  | 
